Experimental data from PubChem BioAssay (NCI).
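Each compound was tested at five concentrations against cells in 96-well plates for 48 hours. TGI: total growth inhibition.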

Key:
Experiment in all cases: NCI anticancer screen, dose series, 48 h
786-0 renal = tested on: 786-0 renal
A498 renal = tested on: A498 renal
A549 NSCLC = tested on: A549 NSCLC
BT-549 breast = tested on: BT-549 breast
CAKI-1 renal = tested on: CAKI-1 renal
CCRF-CEM leukemia = tested on: CCRF-CEM leukemia
COLO 205 colon = tested on: COLO 205 colon
DU-145 prostate = tested on: DU-145 prostate
EKVX NSCLC = tested on: EKVX NSCLC
HCC-2998 colon = tested on: HCC-2998 colon
HCT-116 colon = tested on: HCT-116 colon
HCT-15 colon = tested on: HCT-15 colon
HOP-62 NSCLC = tested on: HOP-62 NSCLC
HOP-92 NSCLC = tested on: HOP-92 NSCLC
HT29 colon = tested on: HT29 colon
IGROV1 ovarian = tested on: IGROV1 ovarian
KM12 colon = tested on: KM12 colon
LOX IMVI melanoma = tested on: LOX IMVI melanoma
M14 melanoma = tested on: M14 melanoma
MALME-3M melanoma = tested on: MALME-3M melanoma
MDA-MB-231 breast = tested on: MDA-MB-231 breast
MDA-MB-435 = tested on: MDA-MB-435
MDA-N = tested on: MDA-N
MOLT-4 leukemia = tested on: MOLT-4 leukemia
NCI-H226 lung = tested on: NCI-H226 lung
NCI-H23 lung = tested on: NCI-H23 lung
NCI-H522 lung = tested on: NCI-H522 lung
NCI/ADR-RES ovarian = tested on: NCI/ADR-RES ovarian
OVCAR-3 ovarian = tested on: OVCAR-3 ovarian
OVCAR-5 ovarian = tested on: OVCAR-5 ovarian
OVCAR-8 ovarian = tested on: OVCAR-8 ovarian
PC-3 prostate = tested on: PC-3 prostate
RPMI-8226 leukemia = tested on: RPMI-8226 leukemia
SF-268 CNS = tested on: SF-268 CNS
SF-295 CNS = tested on: SF-295 CNS
SF-539 CNS = tested on: SF-539 CNS
SK-MEL-2 melanoma = tested on: SK-MEL-2 melanoma
SK-MEL-5 melanoma = tested on: SK-MEL-5 melanoma
SK-OV-3 ovarian = tested on: SK-OV-3 ovarian
SN12C renal = tested on: SN12C renal
SR leukemia = tested on: SR leukemia
SW-620 colon = tested on: SW-620 colon
T-47D breast = tested on: T-47D breast
TK-10 renal = tested on: TK-10 renal
U251 CNS = tested on: U251 CNS
UACC-257 melanoma = tested on: UACC-257 melanoma
UACC-62 melanoma = tested on: UACC-62 melanoma
UO-31 renal = tested on: UO-31 renal
ACHN renal = tested on: ACHN renal
HL-60(TB) leukemia = tested on: HL-60(TB) leukemia
K-562 leukemia = tested on: K-562 leukemia
MCF7 breast = tested on: MCF7 breast
NCI-H460 lung = tested on: NCI-H460 lung
OVCAR-4 ovarian = tested on: OVCAR-4 ovarian
RXF 393 renal = tested on: RXF 393 renal
SK-MEL-28 melanoma = tested on: SK-MEL-28 melanoma
SNB-19 CNS = tested on: SNB-19 CNS
SNB-75 CNS = tested on: SNB-75 CNS

## COc1ccc2c(c1)OCC1Cc3cccc(OC)c3OC21 (stereo unspecified)
786-0 renal
  TGI: > 100 µM
A498 renal
  TGI: > 100 µM
A549 NSCLC
  TGI: > 100 µM
BT-549 breast
  TGI: 80 µM
CAKI-1 renal
  TGI: > 100 µM
CCRF-CEM leukemia
  TGI: > 100 µM
COLO 205 colon
  TGI: > 100 µM
DU-145 prostate
  TGI: > 100 µM
EKVX NSCLC
  TGI: > 100 µM
HCC-2998 colon
  TGI: > 100 µM
HCT-116 colon
  TGI: > 100 µM
HCT-15 colon
  TGI: > 100 µM
HOP-62 NSCLC
  TGI: > 100 µM
HOP-92 NSCLC
  TGI: > 100 µM
HT29 colon
  TGI: > 100 µM
IGROV1 ovarian
  TGI: > 100 µM
KM12 colon
  TGI: > 100 µM
LOX IMVI melanoma
  TGI: > 100 µM
M14 melanoma
  TGI: > 100 µM
MALME-3M melanoma
  TGI: > 100 µM
MDA-MB-231 breast
  TGI: > 100 µM
MDA-MB-435
  TGI: > 100 µM
MDA-N
  TGI: > 100 µM
MOLT-4 leukemia
  TGI: 80.7 µM
NCI-H226 lung
  TGI: > 100 µM
NCI-H23 lung
  TGI: > 100 µM
NCI-H522 lung
  TGI: > 100 µM
NCI/ADR-RES ovarian
  TGI: > 100 µM
OVCAR-3 ovarian
  TGI: > 100 µM
OVCAR-5 ovarian
  TGI: > 100 µM
OVCAR-8 ovarian
  TGI: > 100 µM
PC-3 prostate
  TGI: > 100 µM
RPMI-8226 leukemia
  TGI: > 100 µM
SF-268 CNS
  TGI: > 100 µM
SF-295 CNS
  TGI: > 100 µM
SF-539 CNS
  TGI: > 100 µM
SK-MEL-2 melanoma
  TGI: > 100 µM
SK-MEL-5 melanoma
  TGI: 35.7 µM
SK-OV-3 ovarian
  TGI: > 100 µM
SN12C renal
  TGI: > 100 µM
SR leukemia
  TGI: > 100 µM
SW-620 colon
  TGI: > 100 µM
T-47D breast
  TGI: > 100 µM
TK-10 renal
  TGI: > 100 µM
U251 CNS
  TGI: > 100 µM
UACC-257 melanoma
  TGI: > 100 µM
UACC-62 melanoma
  TGI: > 100 µM
UO-31 renal
  TGI: > 100 µM

## CCOC(=O)c1c(C)n(-c2ccc(C)cc2)c2c1cc(O)c1[nH]c3c(c12)CCCC3
786-0 renal
  TGI: 37.1 µM
A498 renal
  TGI: 56.2 µM
A549 NSCLC
  TGI: > 100 µM
ACHN renal
  TGI: > 100 µM
BT-549 breast
  TGI: 26.2 µM
CAKI-1 renal
  TGI: > 100 µM
CCRF-CEM leukemia
  TGI: 7.64 µM
COLO 205 colon
  TGI: > 100 µM
DU-145 prostate
  TGI: 42.5 µM
EKVX NSCLC
  TGI: 99.7 µM
HCC-2998 colon
  TGI: 34.1 µM
HCT-116 colon
  TGI: 92.6 µM
HCT-15 colon
  TGI: > 100 µM
HL-60(TB) leukemia
  TGI: 51.7 µM
HOP-62 NSCLC
  TGI: > 100 µM
HOP-92 NSCLC
  TGI: 23.6 µM
HT29 colon
  TGI: 32.3 µM
IGROV1 ovarian
  TGI: 33.9 µM
K-562 leukemia
  TGI: 48.8 µM
KM12 colon
  TGI: 51.5 µM
LOX IMVI melanoma
  TGI: 30.2 µM
M14 melanoma
  TGI: 42.6 µM
MALME-3M melanoma
  TGI: 37 µM
MCF7 breast
  TGI: 65.6 µM
MDA-MB-231 breast
  TGI: 81.7 µM
MDA-MB-435
  TGI: 62.2 µM
MDA-N
  TGI: 46.6 µM
MOLT-4 leukemia
  TGI: 22.4 µM
NCI-H226 lung
  TGI: 60 µM
NCI-H23 lung
  TGI: 67 µM
NCI-H460 lung
  TGI: 84.5 µM
NCI-H522 lung
  TGI: 27.4 µM
NCI/ADR-RES ovarian
  TGI: > 100 µM
OVCAR-3 ovarian
  TGI: 51.1 µM
OVCAR-4 ovarian
  TGI: 51.3 µM
OVCAR-5 ovarian
  TGI: > 100 µM
OVCAR-8 ovarian
  TGI: 82.3 µM
PC-3 prostate
  TGI: 52.3 µM
RPMI-8226 leukemia
  TGI: 24.8 µM
RXF 393 renal
  TGI: 27 µM
SF-268 CNS
  TGI: 55.2 µM
SF-295 CNS
  TGI: 65.2 µM
SF-539 CNS
  TGI: 30.2 µM
SK-MEL-2 melanoma
  TGI: 33.7 µM
SK-MEL-28 melanoma
  TGI: 33.1 µM
SK-MEL-5 melanoma
  TGI: 24.3 µM
SK-OV-3 ovarian
  TGI: > 100 µM
SN12C renal
  TGI: > 100 µM
SNB-19 CNS
  TGI: 67.5 µM
SNB-75 CNS
  TGI: 12.4 µM
SR leukemia
  TGI: 11.5 µM
SW-620 colon
  TGI: 39 µM
T-47D breast
  TGI: > 100 µM
TK-10 renal
  TGI: 77.8 µM
U251 CNS
  TGI: 34.8 µM
UACC-257 melanoma
  TGI: 56.7 µM
UACC-62 melanoma
  TGI: 46.7 µM
UO-31 renal
  TGI: 27.9 µM
